The values that follow come from patent US9855273B2, “Combination therapy for MDS” (priority 2013, dated 2018).

Read-outs that look alike come from different tables or passages of the source.

For one assay, the target named is IRAK1 (pIRAK1T209) (Homo sapiens, UniProt P51617). As to the method: (§1) Total protein lysates were obtained from cells by lysing the samples in cold RIPA buffer (50 mM Tris-HCl, 150 mM NaCl, 1 mM EDTA, 1% Triton X-100 and 0.1% SDS), in the presence of PMSF, sodium orthovanadate, protease and phosphatase inhibitors. After being re-suspended in RIPA cells were briefly sonicated. Protein concentration was evaluated by a BCA assay (Pierce). For immunoprecipitation, TRAF6 or IRAK1 antibodies (2 μg) were added to cell lysates (10 mg) for 3 h at 4° C. and captured by the addition of Protein A/G Plus beads (sc-2003; Santa Cruz) as described before (Starczynowski et al., 2011). The immune complexes were washed with lysis buffer followed by the addition of SDS sample buffer. The bound proteins were separated by SDS-polyacrylamide gel electrophoresis, transferred to nitrocellulose membranes, and analyzed by immunoblotting. Western blot analysis was performed with the following antibodies: TRAF6 (sc-7221; Santa Cruz), IRAK1 (sc-7883; Santa Cruz), ubiquitin (sc-8017; Santa Cruz), IKKβ (2370; Cell Signaling Technology), GAPDH (5174; Cell Signaling Technology), p38 MAPK (9212; Cell Signaling Technology), phopho-p38 MAPK (4631; Cell Signaling Technology), phospho-IKKα/β (2697; Cell Signaling Technology), phospho-IRAK1 (S376) (PAB0497; Abnova), phospho-IRAK1 (T209) (A1074; AssaybioTech), phospho-ERK (4695; Cell Signaling Technology), Lck (2752; Cell Signaling Technology), phospho-Lck (Tyr505) (2751; Cell Signaling Technology), IRAK4 (4363; Cell Signaling Technology), phospho-IRAK4 (Thr345/Ser346) (7652; Cell Signaling Technology), Src (2102; Cell Signaling Technology), Phospho-Src (Tyr416) (2113; Cell Signaling Technology), BCL-2 (2870; Cell Signaling Technology) and Actin (4968; Cell Signaling Technology).
IRAK1 (pIRAK1T209), sequence (P51617 whole entry): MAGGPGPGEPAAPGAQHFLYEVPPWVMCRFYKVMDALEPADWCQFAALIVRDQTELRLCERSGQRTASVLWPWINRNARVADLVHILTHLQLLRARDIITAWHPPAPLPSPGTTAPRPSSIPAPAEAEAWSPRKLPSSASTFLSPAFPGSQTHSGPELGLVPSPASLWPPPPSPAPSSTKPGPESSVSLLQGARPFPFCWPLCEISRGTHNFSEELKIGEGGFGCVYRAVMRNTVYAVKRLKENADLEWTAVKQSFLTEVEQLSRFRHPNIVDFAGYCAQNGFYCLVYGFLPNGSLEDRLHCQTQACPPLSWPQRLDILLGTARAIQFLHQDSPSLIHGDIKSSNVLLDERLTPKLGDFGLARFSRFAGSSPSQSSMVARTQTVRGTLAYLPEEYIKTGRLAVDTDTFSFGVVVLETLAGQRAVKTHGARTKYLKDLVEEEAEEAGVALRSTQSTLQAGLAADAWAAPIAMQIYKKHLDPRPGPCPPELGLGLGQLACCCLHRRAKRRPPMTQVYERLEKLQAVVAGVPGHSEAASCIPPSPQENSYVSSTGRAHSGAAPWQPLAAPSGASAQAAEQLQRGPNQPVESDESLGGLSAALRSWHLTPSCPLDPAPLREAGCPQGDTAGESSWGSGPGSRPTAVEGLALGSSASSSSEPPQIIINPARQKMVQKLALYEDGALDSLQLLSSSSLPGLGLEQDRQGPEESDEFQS

The next assay deals with TRAF6/NF-κB signaling. Here is the method: as §1
In a further assay the test system is BCL2. The following applies: 10 μM. Here is the method:
as §1

Another assay has as its system MDS/AML cell lines. In words: AnnexinV apoptosis staining of MDS/AML cell lines. The following applies: all cell lines, 48 hrs of treatment, 10 μM. It is filed as cell-based, human.
Another assay deals with AML patient cells. The assay can be described thus: Colony formation in methylcellulose, primary AML cells. It is filed as cell-based, human.
Assay [1] has as its system MDSL cells. The assay can be described thus: MDSL xenograft, cells pre-treated in vitro, NSGS mice. It is filed as in vivo. Here is the method: (§2) Xenograftment of NOD/SCID-IL2Rγ(NSG) and NSG-hSCF/hGM-CSF/hIL3 (NSGS) MDSL cells (1×10^6-5×10^6) were injected into the tail veins of 8-week old sublethally irradiated ([…]) NSG or NSG animals engineered to express human SCF, GM-CSF, and IL3 (NSGS) as previously described (Wunderlich et al., 2010). Mice were monitored by performing complete blood counts (Drew Hemavet 950FS). Following red cell lysis, human MDSL cells were identified by hCD45-FITC staining. In vivo delivery of IRAK-Inh approach is adapted from previous reports (Yang et al., 2011): IRAK-Inh was diluted in DMSO (5 mM) and further dissolved in sterile phosphate buffered saline (PBS; pH 7.2). Animals were injected i.p. with 2.12 mg/kg IRAK-Inh 3× weekly.
(§3) To determine whether IRAK-Inh can delay human MDS-like disease in vivo, MDSL were pre-treated with IRAK-Inh (10 μM) for 24 hrs in vitro and subsequently injected intravenously (i.v.) into NSG (5×10^6 cells) and NSGS (1×10^6 cells) recipient mice (FIG. 4A). This approach permitted us to evaluate the cell autonomous effect of IRAK-Inh on MDS cell viability and engraftment without altering endogenous IRAK1 function in the mouse.
Moreover, we investigated whether combined IRAK1 and BCL2 inhibition could delay human MDS-like disease in vivo. MDSL cells were treated with IRAK-Inh (10 μM) and/or ABT-263 (0.1 μM) for 48 hrs in vitro and subsequently injected i.v. into NSGS mice (FIG. 4A).

In a further assay the target is IRAK4 (Homo sapiens, UniProt Q9NWZ3). Particulars: read-out: IC50 IRAK4; Powers et al., 2006; cited from earlier work.
IRAK4, sequence (Q9NWZ3 whole entry, species assumed): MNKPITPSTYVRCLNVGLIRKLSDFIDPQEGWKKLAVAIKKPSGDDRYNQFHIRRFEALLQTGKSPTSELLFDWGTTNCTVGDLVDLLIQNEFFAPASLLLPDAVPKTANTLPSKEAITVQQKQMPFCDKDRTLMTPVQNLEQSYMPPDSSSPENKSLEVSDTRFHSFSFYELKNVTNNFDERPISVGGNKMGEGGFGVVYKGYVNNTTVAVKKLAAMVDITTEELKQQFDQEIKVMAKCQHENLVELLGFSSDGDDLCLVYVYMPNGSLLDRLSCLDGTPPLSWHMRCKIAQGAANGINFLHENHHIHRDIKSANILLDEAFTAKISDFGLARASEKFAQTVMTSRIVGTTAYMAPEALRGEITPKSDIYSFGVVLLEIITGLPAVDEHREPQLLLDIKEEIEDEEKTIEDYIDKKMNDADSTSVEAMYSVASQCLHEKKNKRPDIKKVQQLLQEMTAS
The next assay has as its target IRAK1 (Homo sapiens, UniProt P51617). Particulars: Powers et al., 2006, cited from earlier work.
The subject of a further assay is MDS patient marrow cells. In words: Colony formation in methylcellulose, primary MDS marrow cells. Particulars: continuously treated or briefly exposed.
Assay [2] has as its system MDSL cells. The assay can be described thus: MDSL xenograft, cells pre-treated in vitro, NSG mice. It is filed as in vivo. As to the method:
as §2, §3

IRAK1, sequence (P51617 whole entry, species assumed): as the sequence (P51617 whole entry) above
Source text for AML patient cells: (§4) We evaluated marrow cells from 7 MDS and 3 AML patient samples with various cytogenetic features to determine whether IRAK1 inhibition is also effective in primary patient cells (Table S1). […] Since MDS and AML stem/progenitor cells are clonal and the disease-propagating cells form colonies in methylcellulose, we also evaluated the effects of IRAK-Inh on colony formation.
Source text for MDS patient marrow cells: as §4
Procedure for MDS/AML cell lines: Cells were stained after either drug treatment or lentiviral transduction with Annexin V (eBioscience) and propidium iodide (Sigma-Aldrich), or 7AAD (eBioscience) according to the manufacturer's instructions. Analysis was performed using BD FACSCalibur or FACSCanto flow cytometer with either CellQuest or Diva software.

Usually IC50 stands for the concentration needed to halve the response being measured. Consider `O=C(Nc1nc2ccccc2n1CCN1CCOCC1)c1cccc([N+](=O)[O-])c1` [IRAK-Inh, N-(2-morpholinylethyl)-2-(3-nitrobenzoylamido)-benzimidazole], for which the “phosphorylated IRAK1 reduced by” value at IRAK1 (pIRAK1T209) (10 μM, 24 hrs, cell lines and patient marrow cells) is around 70%. Besides, the “phosphorylation and K63-linked ubiquitination of immunoprecipitated IRAK1” value on IRAK1 (pIRAK1T209) (THP1, 10 μM, 24 hrs) is “reduced phosphorylation and K63-linked ubiquitination”. Besides, the “pIRAK1T209 inhibited by” value on IRAK1 (pIRAK1T209) (cells with lentiviral IRAK1 or TRAF6 overexpression) is listed as around 50%. On IRAK1 (pIRAK1T209) (malignant myeloid cells, IRAK1, IRAK4, Src, Lck immunoblots), the “kinases with structural homology to IRAK1 targeted in cells” value is “only IRAK1 is a target”. Besides, in the assay with TRAF6/NF-κB signaling (10 μM for 24 hrs), the “p100/p52 processing (non-canonical NF-κB)” value was “completely blocked”. Besides, the pIKKα/IKKβ entry in the assay with TRAF6/NF-κB signaling (10 μM for 24 hrs, vector- and TRAF6-expressing cells) is given as “reduced pIKKα/IKKβ”. Further, the “polyubiquitinated TRAF6” value with TRAF6/NF-κB signaling (THP1, 10 μM, 24 hrs) is “reduced polyubiquitinated TRAF6”. Also, the BCL2 expression result with BCL2 is “increased in several of the cell lines examined”. For the same compound, in the assay on MDS/AML cell lines, the apoptosis result is listed as “modest increase in apoptosis”. In addition, in the assay with AML patient cells, the AML progenitor function result was “did not affect”. Besides, in the assay on AML patient cells (IRAK-Inh 10 μM, ABT-263 0.1 μM), the “leukemic progenitor function of AML patient cells” value was “not sensitive”. Besides, the median survival in the assay with MDSL cells [1] (MDSL pre-treated 10 μM 24 hrs, 1×10^6 cells i.v., control 29 days) was 38 days; in the assay on MDSL cells [1] (MDSL treated in vitro with IRAK-Inh 10 μM and/or ABT-263 0.1 μM, DMSO 28 days), around 35 days; in the assay with MDSL cells [2] (MDSL pre-treated 10 μM 24 hrs, 5×10^6 cells i.v., control 68 days), 80 days. The “red blood cell numbers, hemoglobin, hematocrit and platelets” value in the assay with MDSL cells [1] (mice transplanted with pre-treated MDSL cells) was “significantly improved”. Further, the IC50 on IRAK4 was 0.2 µM; at IRAK1 (read-out: IC50 IRAK1, FIG. 9A legend) it was 0.3 µM; on IRAK1 (read-out: IC50 IRAK1 kinase activity, Wang et al., 2009) it was 0.75 µM. The “colony formation of MDS marrow cells” value in the assay with MDS patient marrow cells is listed as “significantly fewer colonies”. The “human MDSL graft” value in the assay on MDSL cells [2] (peripheral blood, 28 days post-transplant, control 8%) was 2%.
